ChEMBL document CHEMBL4507286 (2021)

Columns and labels:
[1] = target: Protein kinase C eta type (Homo sapiens) (UniProt P24723)
[2] = target: D(1B) dopamine receptor (Homo sapiens) (UniProt P21918); details: Compound concentration 10.0 uM
[3] = target: Beta-1 adrenergic receptor (Homo sapiens) (UniProt P08588); details: Compound concentration 10.0 uM
[4] = target: Ephrin type-A receptor 6 (Homo sapiens) (UniProt Q9UF33)
[5] = target: Myosin-IIIb (Homo sapiens) (UniProt Q8WXR4)
[6] = target: Alpha-2C adrenergic receptor (Homo sapiens) (UniProt P18825); details: Compound concentration 10.0 uM
Alpha-2C adrenergic receptor (Homo sapiens), sequence (P18825 whole entry): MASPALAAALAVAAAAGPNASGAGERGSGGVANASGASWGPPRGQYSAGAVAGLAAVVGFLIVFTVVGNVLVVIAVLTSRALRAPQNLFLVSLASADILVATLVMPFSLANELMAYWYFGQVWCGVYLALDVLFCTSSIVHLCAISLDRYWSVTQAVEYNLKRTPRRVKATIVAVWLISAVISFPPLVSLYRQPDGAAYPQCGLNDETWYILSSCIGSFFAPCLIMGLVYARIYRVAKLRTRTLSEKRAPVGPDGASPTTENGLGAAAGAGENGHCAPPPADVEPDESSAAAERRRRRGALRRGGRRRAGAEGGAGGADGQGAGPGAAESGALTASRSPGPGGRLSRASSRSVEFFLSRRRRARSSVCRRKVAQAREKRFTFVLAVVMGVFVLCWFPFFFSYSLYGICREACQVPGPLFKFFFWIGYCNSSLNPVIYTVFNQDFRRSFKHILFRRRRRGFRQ

[7] = target: Non-receptor tyrosine-protein kinase TYK2 (Homo sapiens) (UniProt P29597)
[8] = target: Calcium/calmodulin-dependent protein kinase type 1 (Homo sapiens) (UniProt Q14012)
[9] = target: Insulin receptor (Homo sapiens) (UniProt P06213)
[10] = target: Serine/threonine-protein kinase PAK 1 (Homo sapiens) (UniProt Q13153)
[11] = target: Serine/threonine-protein kinase MARK1 (Homo sapiens) (UniProt Q9P0L2)
[12] = target: Serine/threonine-protein kinase 33 (Homo sapiens) (UniProt Q9BYT3)
[13] = target: Calcium/calmodulin-dependent protein kinase type 1G (Homo sapiens) (UniProt Q96NX5)
Calcium/calmodulin-dependent protein kinase type 1G (Homo sapiens), sequence (Q96NX5 whole entry): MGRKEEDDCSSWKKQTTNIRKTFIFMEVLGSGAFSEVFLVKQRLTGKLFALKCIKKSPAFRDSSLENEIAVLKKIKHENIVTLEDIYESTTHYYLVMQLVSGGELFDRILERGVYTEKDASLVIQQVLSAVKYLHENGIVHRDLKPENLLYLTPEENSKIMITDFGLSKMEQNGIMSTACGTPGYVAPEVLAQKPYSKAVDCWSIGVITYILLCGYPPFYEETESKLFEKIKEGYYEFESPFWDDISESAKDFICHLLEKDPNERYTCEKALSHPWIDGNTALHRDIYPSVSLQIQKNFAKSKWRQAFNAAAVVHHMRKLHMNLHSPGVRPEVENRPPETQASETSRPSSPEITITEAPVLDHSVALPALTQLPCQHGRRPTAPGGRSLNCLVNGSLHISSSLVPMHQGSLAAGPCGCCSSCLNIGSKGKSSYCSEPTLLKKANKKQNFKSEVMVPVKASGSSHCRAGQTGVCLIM

[14] = target: Muscarinic acetylcholine receptor M5 (Homo sapiens) (UniProt P08912); details: Compound concentration 10.0 uM
[15] = target: Serine/threonine-protein kinase SIK1 (Homo sapiens) (UniProt P57059)
[16] = target: RAF proto-oncogene serine/threonine-protein kinase (Homo sapiens) (UniProt P04049)
[17] = target: Mitogen-activated protein kinase kinase kinase kinase 2 (Homo sapiens) (UniProt Q12851)
Mitogen-activated protein kinase kinase kinase kinase 2 (Homo sapiens), sequence (Q12851 whole entry): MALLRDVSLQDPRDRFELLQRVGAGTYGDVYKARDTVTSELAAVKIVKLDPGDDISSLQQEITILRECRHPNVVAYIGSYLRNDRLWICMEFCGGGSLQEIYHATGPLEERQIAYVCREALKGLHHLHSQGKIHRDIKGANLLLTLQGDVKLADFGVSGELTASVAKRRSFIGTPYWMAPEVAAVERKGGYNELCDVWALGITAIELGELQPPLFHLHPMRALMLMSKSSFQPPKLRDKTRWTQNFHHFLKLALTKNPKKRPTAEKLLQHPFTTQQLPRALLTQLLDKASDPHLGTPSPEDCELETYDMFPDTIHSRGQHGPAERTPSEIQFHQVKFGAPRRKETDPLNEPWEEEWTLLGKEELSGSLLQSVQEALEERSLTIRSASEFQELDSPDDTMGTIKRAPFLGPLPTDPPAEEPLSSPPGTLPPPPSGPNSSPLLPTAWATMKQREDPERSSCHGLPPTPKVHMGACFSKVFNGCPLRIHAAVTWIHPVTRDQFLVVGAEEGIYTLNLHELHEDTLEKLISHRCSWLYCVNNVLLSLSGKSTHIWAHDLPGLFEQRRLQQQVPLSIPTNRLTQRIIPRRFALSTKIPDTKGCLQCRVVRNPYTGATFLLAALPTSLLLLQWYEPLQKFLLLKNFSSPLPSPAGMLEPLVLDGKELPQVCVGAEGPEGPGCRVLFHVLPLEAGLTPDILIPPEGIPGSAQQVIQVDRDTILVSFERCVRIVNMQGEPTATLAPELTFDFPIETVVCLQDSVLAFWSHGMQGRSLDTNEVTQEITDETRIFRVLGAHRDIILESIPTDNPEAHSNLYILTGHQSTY

[18] = target: Calcium/calmodulin-dependent protein kinase type II subunit alpha (Homo sapiens) (UniProt Q9UQM7)
[19] = target: Serine/threonine-protein kinase pim-3 (Homo sapiens) (UniProt Q86V86)
[20] = target: Serine/threonine-protein kinase pim-2 (Homo sapiens) (UniProt Q9P1W9)
Serine/threonine-protein kinase pim-2 (Homo sapiens), sequence (Q9P1W9 whole entry, looked up): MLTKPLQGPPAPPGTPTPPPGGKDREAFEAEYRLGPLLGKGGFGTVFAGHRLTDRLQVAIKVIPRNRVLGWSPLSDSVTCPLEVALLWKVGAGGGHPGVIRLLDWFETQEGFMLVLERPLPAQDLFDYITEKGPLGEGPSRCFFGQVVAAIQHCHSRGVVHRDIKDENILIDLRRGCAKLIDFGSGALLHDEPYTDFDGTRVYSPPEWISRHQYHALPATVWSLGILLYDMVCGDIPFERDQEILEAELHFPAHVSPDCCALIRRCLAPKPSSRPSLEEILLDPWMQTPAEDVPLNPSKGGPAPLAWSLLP

[21] = target: SNF-related serine/threonine-protein kinase (Homo sapiens) (UniProt Q9NRH2)
[22] = target: ALK tyrosine kinase receptor (Homo sapiens) (UniProt Q9UM73)
[23] = target: Mitogen-activated protein kinase 8 (Homo sapiens) (UniProt P45983)
[24] = target: Cyclin-dependent kinase 16 (Homo sapiens) (UniProt Q00536)
[25] = target: Activin receptor type-1 (Homo sapiens) (UniProt Q04771)
[26] = target: Serine/threonine-protein kinase DCLK3 (Homo sapiens) (UniProt Q9C098)
[27] = system: Receptor-type tyrosine-protein kinase FLT3 (Homo sapiens), P36888 [N841I]
[28] = target: Receptor tyrosine-protein kinase erbB-3 (Homo sapiens) (UniProt P21860)
[29] = target: Ribosomal protein S6 kinase alpha-1 (Homo sapiens) (UniProt Q15418)
[30] = target: Serine/threonine-protein kinase TBK1 (Homo sapiens) (UniProt Q9UHD2)
[31] = target: Mitogen-activated protein kinase 13 (Homo sapiens) (UniProt O15264)
[32] = target: Casein kinase I isoform gamma-1 (Homo sapiens) (UniProt Q9HCP0)
[33] = target: Serine/threonine-protein kinase 10 (Homo sapiens) (UniProt O94804)
[34] = target: Phosphorylase b kinase gamma catalytic chain, skeletal muscle/heart isoform (Homo sapiens) (UniProt Q16816)
[35] = target: Histamine H2 receptor (Homo sapiens) (UniProt P25021); details: Compound concentration 10.0 uM
[36] = system: Phosphatidylinositol 4,5-bisphosphate 3-kinase catalytic subunit alpha isoform (Homo sapiens), P42336 [H1047L]
Phosphatidylinositol 4,5-bisphosphate 3-kinase catalytic subunit alpha isoform (Homo sapiens), P42336 [H1047L], sequence (P42336 whole entry H1047L, canonical isoform): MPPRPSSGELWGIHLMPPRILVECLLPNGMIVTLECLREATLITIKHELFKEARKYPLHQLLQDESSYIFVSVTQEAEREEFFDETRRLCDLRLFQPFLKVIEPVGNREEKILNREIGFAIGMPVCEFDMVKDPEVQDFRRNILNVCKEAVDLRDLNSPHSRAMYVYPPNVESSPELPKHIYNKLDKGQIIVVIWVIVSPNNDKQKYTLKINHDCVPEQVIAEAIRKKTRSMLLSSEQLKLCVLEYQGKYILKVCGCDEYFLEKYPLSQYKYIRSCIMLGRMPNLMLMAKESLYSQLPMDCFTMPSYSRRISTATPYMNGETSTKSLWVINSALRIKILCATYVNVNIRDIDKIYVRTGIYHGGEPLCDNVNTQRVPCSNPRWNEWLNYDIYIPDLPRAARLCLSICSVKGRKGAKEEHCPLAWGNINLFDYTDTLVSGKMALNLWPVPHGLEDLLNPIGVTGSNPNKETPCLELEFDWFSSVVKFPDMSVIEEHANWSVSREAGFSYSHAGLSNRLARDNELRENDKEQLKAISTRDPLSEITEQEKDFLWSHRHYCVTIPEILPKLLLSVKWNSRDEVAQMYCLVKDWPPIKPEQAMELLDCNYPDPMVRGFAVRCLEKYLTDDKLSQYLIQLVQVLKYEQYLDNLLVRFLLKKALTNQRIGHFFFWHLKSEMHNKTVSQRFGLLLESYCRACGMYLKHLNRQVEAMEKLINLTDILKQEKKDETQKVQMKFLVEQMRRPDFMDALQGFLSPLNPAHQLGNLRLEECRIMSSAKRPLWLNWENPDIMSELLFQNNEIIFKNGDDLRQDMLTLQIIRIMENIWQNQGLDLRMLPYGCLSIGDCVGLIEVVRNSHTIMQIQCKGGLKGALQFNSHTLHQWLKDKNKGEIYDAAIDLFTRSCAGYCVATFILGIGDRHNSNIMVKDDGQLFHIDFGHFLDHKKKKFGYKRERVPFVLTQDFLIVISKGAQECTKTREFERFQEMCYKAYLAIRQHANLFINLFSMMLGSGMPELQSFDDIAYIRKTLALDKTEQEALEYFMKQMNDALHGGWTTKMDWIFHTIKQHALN

[37] = target: Receptor-interacting serine/threonine-protein kinase 2 (Homo sapiens) (UniProt O43353)
Receptor-interacting serine/threonine-protein kinase 2 (Homo sapiens), sequence (O43353 whole entry, canonical isoform): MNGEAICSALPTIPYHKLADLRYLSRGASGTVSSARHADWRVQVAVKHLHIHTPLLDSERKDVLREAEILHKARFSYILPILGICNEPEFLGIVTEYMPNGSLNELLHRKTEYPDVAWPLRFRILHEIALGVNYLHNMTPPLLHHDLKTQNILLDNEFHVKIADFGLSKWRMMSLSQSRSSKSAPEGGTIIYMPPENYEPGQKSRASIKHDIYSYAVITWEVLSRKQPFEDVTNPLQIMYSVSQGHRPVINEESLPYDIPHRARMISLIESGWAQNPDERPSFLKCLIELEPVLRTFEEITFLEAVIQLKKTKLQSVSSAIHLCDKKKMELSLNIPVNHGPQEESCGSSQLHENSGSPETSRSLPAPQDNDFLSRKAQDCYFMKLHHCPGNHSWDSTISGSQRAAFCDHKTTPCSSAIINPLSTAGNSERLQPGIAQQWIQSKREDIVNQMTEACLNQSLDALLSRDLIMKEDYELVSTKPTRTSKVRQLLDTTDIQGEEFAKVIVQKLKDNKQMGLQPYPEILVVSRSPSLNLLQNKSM

[38] = system: Phosphatidylinositol 4,5-bisphosphate 3-kinase catalytic subunit alpha isoform (Homo sapiens), P42336 [C420R]
[39] = target: Cyclin-dependent kinase 7 (Homo sapiens, UniProt P50613)
Cyclin-dependent kinase 7, sequence (P50613 whole entry): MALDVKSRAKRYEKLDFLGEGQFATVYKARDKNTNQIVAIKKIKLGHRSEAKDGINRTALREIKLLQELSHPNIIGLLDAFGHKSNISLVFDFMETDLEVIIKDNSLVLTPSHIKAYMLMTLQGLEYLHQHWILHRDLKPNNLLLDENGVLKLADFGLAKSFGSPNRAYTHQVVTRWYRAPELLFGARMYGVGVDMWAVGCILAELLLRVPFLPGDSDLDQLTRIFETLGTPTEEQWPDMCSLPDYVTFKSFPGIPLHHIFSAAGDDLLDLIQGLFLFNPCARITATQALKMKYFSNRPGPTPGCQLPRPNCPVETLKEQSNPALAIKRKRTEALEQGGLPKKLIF

[40] = target: Dual specificity tyrosine-phosphorylation-regulated kinase 1A (Homo sapiens) (UniProt Q13627)
[41] = target: Serine/threonine-protein kinase PknB (Mycobacterium tuberculosis) (UniProt P9WI81)
Serine/threonine-protein kinase PknB (Mycobacterium tuberculosis), sequence (P9WI81 whole entry): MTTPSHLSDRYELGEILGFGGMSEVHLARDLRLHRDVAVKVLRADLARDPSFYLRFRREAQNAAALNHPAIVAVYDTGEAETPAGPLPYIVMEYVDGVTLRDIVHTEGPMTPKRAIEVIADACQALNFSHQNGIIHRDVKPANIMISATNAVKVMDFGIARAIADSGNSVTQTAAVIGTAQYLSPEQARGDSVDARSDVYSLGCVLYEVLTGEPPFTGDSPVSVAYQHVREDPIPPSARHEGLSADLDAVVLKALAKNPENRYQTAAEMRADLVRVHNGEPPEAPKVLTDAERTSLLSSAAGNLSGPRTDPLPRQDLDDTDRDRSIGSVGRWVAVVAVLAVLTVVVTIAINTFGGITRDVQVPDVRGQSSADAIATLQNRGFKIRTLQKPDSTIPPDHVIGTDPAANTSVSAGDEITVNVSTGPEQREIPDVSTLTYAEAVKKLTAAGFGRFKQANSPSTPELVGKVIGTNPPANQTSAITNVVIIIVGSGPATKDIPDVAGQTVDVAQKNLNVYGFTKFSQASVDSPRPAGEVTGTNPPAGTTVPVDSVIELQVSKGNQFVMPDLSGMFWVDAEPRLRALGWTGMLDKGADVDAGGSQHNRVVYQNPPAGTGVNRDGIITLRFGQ

[42] = target: Wee1-like protein kinase (Homo sapiens) (UniProt P30291)
[43] = target: Phosphatidylinositol 4,5-bisphosphate 3-kinase catalytic subunit gamma isoform (Homo sapiens) (UniProt P48736)
[44] = system: Tyrosine-protein kinase ABL1 (Homo sapiens), P00519 [Q252H]
[45] = target: Tyrosine-protein kinase ABL2 (Homo sapiens) (UniProt P42684)
[46] = Compound concentration 1000.0 nM
[47] = Compound concentration 100.0 nM

Which results are given for `C[C@H](NC(=O)Nc1cc2[nH]ncc2c(CO)n1)c1ccccn1` [ERKi-NC]?
residual activity [1, 46]: 95.4%; inhibition [2]: 7.55%; inhibition [3]: 28.2%; residual activity [4, 46]: 89%; residual activity [5, 46]: 67.6%; inhibition [6]: 11.5%; residual activity [7, 46]: 100%; residual activity [8, 46]: 100%; residual activity [9, 46]: 100%; residual activity [10, 46]: 100%; residual activity [11, 46]: 78.7%; residual activity [12, 46]: 100%; residual activity [13, 46]: 100%; inhibition [14]: 7.22%; residual activity [15, 46]: 100%; residual activity [16, 46]: 90.2%; residual activity [17, 46]: 100%; residual activity [18, 46]: 100%; residual activity [19, 46]: 100%; residual activity [20, 46]: 100%; residual activity [21, 46]: 100%; residual activity [22, 46]: 85.4%; residual activity [23, 46]: 63.3%; residual activity [24, 46]: 100%; residual activity [25, 46]: 81.8%; residual activity [26, 46]: 84.5%; residual activity [27, 46]: 100%; residual activity [28, 46]: 60.6%; residual activity [29, 46]: 100%; residual activity [30, 46]: 48.3%; residual activity [31, 46]: 85%; residual activity [32, 46]: 100%; residual activity [33, 46]: 95.5%; residual activity [34, 46]: 96.3%; inhibition [35]: 3.05%; residual activity [36, 46]: 100%; residual activity [37, 46]: 77%; residual activity [38, 46]: 97.1%; residual activity [39, 46]: 100%; residual activity [40, 46]: 100%; residual activity [41, 46]: 100%; residual activity [42, 46]: 100%; residual activity [43, 46]: 100%; residual activity [44, 46]: 100%; residual activity [45, 46]: 100%

Which results are given for `C[C@@H](NC(=O)Nc1cc2[nH]ncc2c(CO)n1)c1ccccc1` [ERKi]?
residual activity [1, 47]: 90.1%; inhibition [2]: 21.1%; inhibition [3]: 6.72%; residual activity [4, 47]: 100%; residual activity [5, 47]: 82.5%; inhibition [6]: -8.07%; residual activity [7, 47]: 97.8%; residual activity [8, 47]: 67.1%; residual activity [9, 47]: 74.7%; residual activity [10, 47]: 79.1%; residual activity [11, 47]: 97%; residual activity [12, 47]: 100%; residual activity [13, 47]: 70.6%; inhibition [14]: 35.8%; residual activity [15, 47]: 100%; residual activity [16, 47]: 100%; residual activity [17, 47]: 78.3%; residual activity [18, 47]: 73.5%; residual activity [19, 47]: 82.9%; residual activity [20, 47]: 100%; residual activity [21, 47]: 100%; residual activity [22, 47]: 89.9%; residual activity [23, 47]: 93.7%; residual activity [24, 47]: 82.2%; residual activity [25, 47]: 98.3%; residual activity [26, 47]: 97.1%; residual activity [27, 47]: 88.2%; residual activity [28, 47]: 99%; residual activity [29, 47]: 100%; residual activity [30, 47]: 84.8%; residual activity [31, 47]: 100%; residual activity [32, 47]: 83%; residual activity [33, 47]: 84.8%; residual activity [34, 47]: 84.1%; inhibition [35]: 11.8%; residual activity [36, 47]: 82.1%; residual activity [37, 47]: 90.3%; residual activity [38, 47]: 89.2%; residual activity [39, 47]: 73.6%; residual activity [40, 47]: 49%; residual activity [41, 47]: 85%; residual activity [42, 47]: 98.9%; residual activity [43, 47]: 96.4%; residual activity [44, 47]: 67.8%; residual activity [45, 47]: 83.9%
